The target of assay [1] is FAK recombinant protein (Homo sapiens (Human), UniProt Q05397). Description: Inhibitory activity against FAK enzyme (HTRF, TK substrate). It is filed as biochemical. On the procedure: A compound serially diluted with DMSO was mixed with a FAK recombinant protein. After the mixture was left to stand at room temperature for 10 min, a biotin-labeled TK substrate (TK) and ATP were added. […] The inhibition percentage and IC50 of the compound were calculated compared to the DMSO control group.

In assay [2] the test system is PC3 cells. Description: PC3 cell proliferation, 2D activity assay (Cell Titer-Lumi, 72 h). It is filed as cell-based, human. Particulars: Homo sapiens, PC-3, read-out: 2D inhibitory activity against PC3 cells IC50.
Assay [3] concerns PC3 cells. In words: PC3 cell proliferation, 3D activity assay (3D culture, 14 days). It is filed as cell-based, human. Particulars: Homo sapiens, PC-3, 336 h, read-out: 3D inhibitory activity against PC3 cells IC50.

IC50 data for 36 compounds are collected here from patent publication US20250154134A1, “COMPOUND AS FAK INHIBITOR AND USE THEREOF” (WIGEN BIOMEDICINE TECHNOLOGY (SHANGHAI) CO., LTD., priority 2022, published 2025).

FAK recombinant protein, sequence (Q05397 whole entry): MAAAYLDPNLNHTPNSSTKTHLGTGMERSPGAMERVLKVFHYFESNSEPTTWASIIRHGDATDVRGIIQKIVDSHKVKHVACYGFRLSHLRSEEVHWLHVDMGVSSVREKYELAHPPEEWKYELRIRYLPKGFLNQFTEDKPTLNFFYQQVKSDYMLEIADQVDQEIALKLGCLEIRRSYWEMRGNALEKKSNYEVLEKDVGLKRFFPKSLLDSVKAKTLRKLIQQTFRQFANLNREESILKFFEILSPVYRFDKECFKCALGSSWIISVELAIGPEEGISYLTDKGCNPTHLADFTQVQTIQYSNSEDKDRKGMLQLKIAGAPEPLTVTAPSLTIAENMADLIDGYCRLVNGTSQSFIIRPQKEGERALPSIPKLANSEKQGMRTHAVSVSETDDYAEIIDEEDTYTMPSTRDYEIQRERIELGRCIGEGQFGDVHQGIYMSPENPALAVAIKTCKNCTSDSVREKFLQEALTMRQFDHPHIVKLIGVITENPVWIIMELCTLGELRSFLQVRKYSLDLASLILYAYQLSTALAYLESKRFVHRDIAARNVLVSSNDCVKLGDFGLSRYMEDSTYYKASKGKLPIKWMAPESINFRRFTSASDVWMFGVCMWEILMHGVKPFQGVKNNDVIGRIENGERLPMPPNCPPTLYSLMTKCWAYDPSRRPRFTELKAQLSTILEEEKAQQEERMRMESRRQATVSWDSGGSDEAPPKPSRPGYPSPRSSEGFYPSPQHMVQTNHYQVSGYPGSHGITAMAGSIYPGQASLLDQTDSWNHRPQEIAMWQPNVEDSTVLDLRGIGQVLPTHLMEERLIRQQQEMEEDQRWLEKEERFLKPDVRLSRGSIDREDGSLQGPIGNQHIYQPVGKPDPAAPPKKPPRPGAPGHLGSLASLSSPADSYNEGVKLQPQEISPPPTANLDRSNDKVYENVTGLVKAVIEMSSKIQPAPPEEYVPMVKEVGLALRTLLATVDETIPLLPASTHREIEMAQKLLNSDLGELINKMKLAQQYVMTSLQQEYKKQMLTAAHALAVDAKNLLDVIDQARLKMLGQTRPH

For `COc1cc(N2CCC(N(C)C)CC2)c(F)cc1Nc1ncc(C(F)(F)F)c(Oc2cccc3c2C(=O)N(C)C32CC2)n1` [Compound 128], the IC50 in assay [1] was below 20 nM; in assay [2], above 2000 nM; in assay [3], below 5 nM.

Consider `COc1cc(C(=O)NC2COC3(CCN(C)C3)C2)c(F)cc1Nc1ncc(C(F)(F)F)c(Oc2cccc3c2C(=O)N(C)C32CC2)n1` (stereo not drawn) [Compound 26], for which the IC50 in assay [1] is below 20 nM; in assay [2] it was above 2000 nM; in assay [3], below 5 nM.

In the case of `CN1CCN(c2ccc(Nc3ncc(C(F)(F)F)c(Oc4cccc5c4C(=O)N(C)C54CC4)n3)nc2)CC1` [Compound 85], the IC50 was below 20 nM in assay [1], above 2000 nM in assay [2] and 5 to 50 nM in assay [3].

As for `COc1cc(N2CCC(N(C)C)CC2)c(F)cc1Nc1ncc(Br)c(Oc2cccc3c2C(=O)N(C)C32CC2)n1` [Compound 191], the IC50 in assay [1] is below 20 nM; in assay [2] it was above 2000 nM; in assay [3], 5 to 50 nM.

`COc1cc(C2CCN(C)CC2)c(F)cc1Nc1ncc(Cl)c(Oc2cccc3c2C(=O)N(C)C32CC2)n1` [Compound 134, 4′-((5-chloro-2-((5-fluoro-2-methoxy-4-(1-methylpiperidin-4-yl)phenyl)amino)pyrimidin-4-yl)oxy)-2′-methylspiro[cyclopropane-1,1′-isoindolin]-3′-one]: the half-maximal inhibitory concentration (IC50) is below 20 nM in assay [1], above 2000 nM in assay [2] and below 5 nM in assay [3].

Take `COc1cc(C(=O)NC2CCC3(CC2)CN(C)C3)c(F)cc1Nc1ncc(C(F)(F)F)c(Oc2cccc3c2C(=O)N(C)C32CC2)n1` [Compound 10]: the figures for the IC50 in assay [1], in assay [2] and in assay [3] were below 20 nM, above 2000 nM and 5 to 50 nM, respectively.

As to `COc1cc(N2CCC(N3CCN(C)CC3)CC2)c(F)cc1Nc1ncc(Cl)c(Oc2cccc3c2C(=O)N(C)C32CC2)n1` [Compound 138], the IC50 in assay [1] is below 20 nM; in assay [2], above 2000 nM; in assay [3], below 5 nM.

Regarding `COc1cc(C(=O)NC2CCC3(CC2)CN(C)C3)ccc1Nc1ncc(C(F)(F)F)c(Cc2cccc3c2C(=O)N(C)C32CC2)n1` [Compound 103], the IC50 is below 20 nM in assay [1], above 2000 nM in assay [2] and 5 to 50 nM in assay [3].

As to `CN1CCC(N2C(=O)Cc3cc(Nc4ncc(C(F)(F)F)c(Oc5cccc6c5C(=O)N(C)C65CC5)n4)ccc32)CC1` [Compound 72], the IC50 in assay [1] is below 20 nM; in assay [2], above 2000 nM; in assay [3], below 5 nM.

As for `COc1cc(C(=O)NC2CCC3(CC2)CCN3C)ccc1Nc1ncc(C(F)(F)F)c(Oc2cccc3c2C(=O)N(C)C32CC2)n1` (stereo not drawn) [Compound 15], the results for the IC50 in assay [1], in assay [2] and in assay [3] were below 20 nM, above 2000 nM and below 5 nM, respectively.

Turning to `COc1cc(C(=O)NC2CCC3(CC2)CCN3C)ccc1Nc1ncc(C(F)(F)F)c(Cc2cccc3c2C(=O)N(C)C32CC2)n1` (stereo not drawn) [Compound 109], the IC50 in assay [1] is below 20 nM; in assay [2] it was above 2000 nM; in assay [3], 5 to 50 nM.

Turning to `COc1cc(C(=O)NC2(C)CCN(C)CC2)c(F)cc1Nc1ncc(C(F)(F)F)c(Oc2cccc3c2C(=O)N(C)C32CC2)n1` [Compound 7], the results for the IC50 in assay [1], in assay [2] and in assay [3] were below 20 nM, above 2000 nM and below 5 nM, respectively.

As for `COc1cc(N2CC(N(C)C)C2)ccc1Nc1ncc(Cl)c(Oc2cccc3c2C(=O)N(C)C32CC2)n1` [Compound 159], the IC50 in assay [1] is below 20 nM; in assay [2], above 2000 nM; in assay [3], 5 to 50 nM.

For `COc1cc(C(=O)NC2CCN(C)CC2)ccc1Nc1ncc(C#N)c(Oc2cccc3c2C(=O)N(C)C32CC2)n1` [Compound 192, 4-((5-cyano-4-((2′-methyl-3′-oxospiro[cyclopropane-1,1′-isoindolin]-4′-yl)oxy)pyrimidin-2-yl)amino)-3-methoxy-N-(1-methylpiperidin-4-yl)benzamide], the IC50 was below 20 nM in assay [1], above 2000 nM in assay [2] and below 5 nM in assay [3].

Regarding `COc1cc(N2CCC3(CC2)CN(C)C3)ccc1Nc1ncc(Cl)c(Oc2cccc3c2C(=O)N(C)C32CC2)n1` [Compound 149], the IC50 in assay [1] was below 20 nM; in assay [2] it was above 2000 nM; in assay [3] it was below 5 nM.

With `COc1cc(N2CC3(CCN(C)C3)OCC2=O)ccc1Nc1ncc(C(F)(F)F)c(Oc2cccc3c2C(=O)N(C)C32CC2)n1` (stereo not drawn) [Compound 67], the values for the IC50 in assay [1], in assay [2] and in assay [3] were below 20 nM, above 2000 nM and 5 to 50 nM, respectively.

For the compound `CCc1cc(C(=O)NC2CCN(C)CC2)c(F)cc1Nc1ncc(C(F)(F)F)c(Oc2cccc3c2C(=O)N(C)C32CC2)n1` [Compound 51], the figures for the IC50 in assay [1], in assay [2] and in assay [3] were below 20 nM, above 2000 nM and 5 to 50 nM, respectively.

Take `COc1cc(N2CC3(CCN(C)CC3)C2)ccc1Nc1ncc(Cl)c(Oc2cccc3c2C(=O)N(C)C32CCCCC2)n1` [Compound 210]: the IC50 in assay [1] is below 20 nM; in assay [2], above 2000 nM; in assay [3], above 50 nM.

With `COc1cc(C2CCN(C)CC2)c(F)cc1Nc1ncc(C(F)(F)F)c(Oc2cccc3c2C(=O)N(C)C32CC2)n1` [Compound 119, 4′-((2-((5-fluoro-2-methoxy-4-(1-methylpiperidin-4-yl)phenyl)amino)-5-(trifluoromethyl)pyrimidin-4-yl)oxy)-2′-methylspiro[cyclopropane-1,1′-isoindolin]-3′-one], the figures for the IC50 in assay [1], in assay [2] and in assay [3] were below 20 nM, above 2000 nM and below 5 nM, respectively.

Take `COCCN1CCN(c2cc(OC)c(Nc3ncc(C(F)(F)F)c(Oc4cccc5c4C(=O)N(C)C54CC4)n3)cc2F)CC1` [Compound 123]: the IC50 in assay [1] was below 20 nM; in assay [2] it was above 2000 nM; in assay [3], below 5 nM.

On to `COc1cc(N2CCC3(CCN(C)CC3)C2=O)ccc1Nc1ncc(C(F)(F)F)c(Oc2cccc3c2C(=O)N(C)C32CC2)n1` [Compound 62], for which the half-inhibitory concentration (IC50) in assay [1] was below 20 nM; in assay [2] it was above 2000 nM; in assay [3] it was 5 to 50 nM.

`COc1cc(N2CC3(CCN(C)C3)OC2=O)ccc1Nc1ncc(C(F)(F)F)c(Oc2cccc3c2C(=O)N(C)C32CC2)n1` (stereo not drawn) [Compound 65]: the values for the IC50 in assay [1], in assay [2] and in assay [3] were below 20 nM, above 2000 nM and below 5 nM, respectively.

In the case of `COc1cc(N2CC3CCN(C)C3C2)ccc1Nc1ncc(Cl)c(Oc2cccc3c2C(=O)N(C)C32CC2)n1` (stereo not drawn) [Compound 170], the values for the IC50 in assay [1], in assay [2] and in assay [3] were below 20 nM, above 2000 nM and 5 to 50 nM, respectively.

`COc1cc(C(=O)NC2CCN(C)CC2)c(-c2cnn(C)c2)cc1Nc1ncc(C(F)(F)F)c(Oc2cccc3c2C(=O)N(C)C32CC2)n1` [Compound 54]: the IC50 in assay [1] is below 20 nM; in assay [2] it was above 2000 nM; in assay [3], below 5 nM.

On to `COc1cc(N2CCC3(CCN(C)CC3)CC2)ccc1Nc1ncc(Br)c(Oc2cccc3c2C(=O)N(C)C32CC2)n1` [Compound 189], for which the IC50 in assay [1] was below 20 nM; in assay [2], above 2000 nM; in assay [3], below 5 nM.

Consider `COc1cc(C(=O)NC2CCN(C)CC2)c(Cl)cc1Nc1ncc(C(F)(F)F)c(Oc2cccc3c2C(=O)N(C)C32CC2)n1` [Compound 5], for which the IC50 in assay [1] was below 20 nM; in assay [2], above 2000 nM; in assay [3], below 5 nM.

Turning to `COc1cc(C2CCN(C)CC2)ccc1Nc1ncc(Cl)c(Oc2cccc3c2C(=O)N(C)C32CC2)n1` [Compound 135, 4′-((5-chloro-2-((2-methoxy-4-(1-methylpiperidin-4-yl)phenyl)amino)pyrimidin-4-yl)oxy)-2′-methylspiro[cyclopropane-1,1′-isoindolin]-3′-one], the IC50 in assay [1] is below 20 nM; in assay [2] it was above 2000 nM; in assay [3], below 5 nM.

Take `COc1cc(C(=O)NC2CC3(CCN(C)CC3)C2)c(F)cc1Nc1ncc(Cl)c(Oc2cccc3c2C(=O)N(C)C32CCC2)n1` [Compound 204]: the IC50 in assay [1] was below 20 nM; in assay [2] it was above 2000 nM; in assay [3] it was below 5 nM.

Regarding `COc1cc(C(=O)NC2CCN3CCN(C)C3C2)ccc1Nc1ncc(C(F)(F)F)c(Cc2cccc3c2C(=O)N(C)C32CC2)n1` (stereo not drawn) [Compound 110], the IC50 in assay [1] is below 20 nM; in assay [2], above 2000 nM; in assay [3], above 50 nM.

In the case of `COc1cc(CN(C)C)ccc1Nc1ncc(C(F)(F)F)c(Oc2cccc3c2C(=O)N(C)C32CC2)n1` [Compound 80], the IC50 in assay [1] was below 20 nM; in assay [2] it was above 2000 nM; in assay [3], 5 to 50 nM.

With `Cc1c(Nc2ncc(C(F)(F)F)c(Oc3cccc4c3C(=O)N(C)C43CC3)n2)nn2c1CCC2` [Compound 93], the IC50 is below 20 nM in assay [1], above 2000 nM in assay [2] and 5 to 50 nM in assay [3].

Take `CN1C(=O)c2c(Oc3nc(Nc4ccc5c(c4)CNC5=O)ncc3C(F)(F)F)cccc2C12CC2` [Compound 70]: the IC50 in assay [1] was below 20 nM; in assay [2], above 2000 nM; in assay [3], above 50 nM.

`COc1cc(N2C3CC2CN(C)C3)ccc1Nc1ncc(Cl)c(Oc2cccc3c2C(=O)N(C)C32CC2)n1` [Compound 164]: the IC50 in assay [1] is below 20 nM; in assay [2], above 2000 nM; in assay [3], 5 to 50 nM.

Regarding `COc1cc(N2CC3(CCN(C)CC3)C2)ccc1Nc1ncc(Cl)c(Oc2cccc3c2C(=O)N(C)C32CCOCC2)n1` [Compound 213], the IC50 in assay [1] was below 20 nM; in assay [2] it was above 2000 nM; in assay [3], above 50 nM.

Consider `COc1cc(N2CCC(N3CC4CC(C3)N4C)CC2)ccc1Nc1ncc(Cl)c(Oc2cccc3c2C(=O)N(C)C32CC2)n1` [Compound 163], for which the IC50 in assay [1] was below 20 nM; in assay [2], above 2000 nM; in assay [3] it was 5 to 50 nM.

Consider `COc1cc(C(=O)NC2CC3(CCN(C)CC3)C2)c(F)cc1Nc1ncc(Br)c(Oc2cccc3c2C(=O)N(C)C32CC2)n1` [Compound 175], for which the IC50 in assay [1] is below 20 nM; in assay [2] it was above 2000 nM; in assay [3] it was below 5 nM.
